One may read the EC50 as the concentration that produces a half-maximal response. Lower therefore signals greater potency.

Structures are written as SMILES. *1 amine or outer side, *2 acyl side, *3 side chain or, on linkers, in order; H or OH if unused. Where a SMILES comes first, the peptide text is derived from it. Side-chain parts run from the residue outwards. [ ]: non-standard residue; d: D form. The star is where a group is joined. C20 diacid = O=C(O)CCCCCCCCCCCCCCCCCCC(=O)*; C18 diacid = O=C(O)CCCCCCCCCCCCCCCCC(=O)*; C16 diacid = O=C(O)CCCCCCCCCCCCCCC(=O)*; γGlu = O=C(O)[C@H](CCC(=O)[*:2])N[*:1]; NMeI = CC[C@H](C)[C@H](NC)C(=O)O; AEEA = NCCOCCOCC(=O)O; Aib = CC(C)(N)C(=O)O

Experimental findings from patent US20260001928A1 (CORTERIA PHARMACEUTICALS, priority 2022, published 2026) are described below.

The test system of this assay is human LAD2 cells. Type of assay: cell-based. The protocol: LAD2 cells (20000 cells/well, 96-well plates and 10,000 cells/well in 384-well plates) were incubated with compounds for 30 min. The R-hexosaminidase released into the supernatants and in cell lysates was quantified using the fluorogenic substrate 4-methylumbelliferyl-N-acetyl-b-D-glucosaminide.
On the day of the assay, the lyophilized peptides were dissolved in DMSO and/or PBS 1× pH 7.4, to obtain stock solutions. The stock solutions were used to prepare working serial dilutions to have final concentrations in assay ranging from 50, 100 or 300 to 0.1 or 0.001 μM. Each peptide was tested in biological duplicates. When compounds were dissolved in DMSO, the final solvent concentration in assay was 0.5% (v/v).
The percentage of degranulation, expressed as % of R-hexosaminidase release, was calculated by dividing the fluorescence signal of the supernatant by the sum of the signals from the supernatant and cell pellet (lysed with Triton X-100, final 1%) and multiplying by 100.
Dose-response curves were generated by plotting the % of R-hexosaminidase release versus total release of cells treated with triton (y-axis) against the concentrations of peptides tested (x-axis). The Mast Cell Degranulation (MCD) EC50 values and standard errors were calculated using XLfit 5.5.0.5 based on the following equation:
4 Parameter Sigmoidal Model: f=(A+((B−A)/(1+((C/x)^D))))
where A=Emin, B=Emax, C=EC50 and D=slope

The compound `CC[C@H](C)[C@H](NC)C(=O)N[C@H](C(=O)N[C@@H](CC(C)C)C(=O)N[C@@H](CO)C(=O)N[C@@H](CC(C)C)C(=O)N[C@@H](CC(=O)O)C(=O)N[C@@H](C(=O)N1CCC[C@H]1C(=O)N[C@H](C(=O)N[C@@H](CCCCN)C(=O)N[C@@H](CC(C)C)C(=O)N[C@@H](CCCCNC(=O)CC[C@H](NC(=O)CCCCCCCCCCCCCCCCCCC(=O)O)C(=O)O)C(=O)N[C@@H](CCCCN)C(=O)N[C@H](C(=O)N[C@@H](CC(C)C)C(=O)N[C@@H](CC(C)C)C(=O)N[C@@H](CCC(=O)O)C(=O)N[C@@H](CCC(N)=O)C(=O)N[C@@H](CCC(=O)O)C(=O)N[C@@H](CCCCN)C(=O)N[C@@H](CCC(N)=O)C(=O)N[C@@H](CCCCN)C(=O)N[C@@H](CCC(=O)O)C(=O)N[C@@H](CCC(N)=O)C(=O)N[C@@H](CCCNC(=N)N)C(=O)N[C@@H](CCC(=O)O)C(=O)N[C@@H](CCC(N)=O)C(=O)N[C@@H](C)C(=O)N[C@@H](CCC(=O)O)C(=O)N[C@H](C(=O)N[C@@H](CC(N)=O)C(=O)NC(C)(C)C(=O)N[C@@H](CCC(N)=O)C(=O)N[C@H](C(=O)N[C@@H](CC(C)C)C(=O)N[C@@H](C)C(=O)N[C@@H](CCC(N)=O)C(=O)N[C@H](C(N)=O)C(C)C)[C@@H](C)CC)[C@@H](C)O)[C@@H](C)CC)[C@@H](C)CC)C(C)C)C(C)C` [Cmpd 218] (H-[NMeI]VLSLD[dV]PIKLK([γGlu-C20 diacid])KILLEQEKQKEQREQAETN[Aib]QILAQV-NH2) registered a 50% effective concentration (EC50) of more than 300 µM. On to `CC[C@H](C)[C@H](NC)C(=O)N[C@H](C(=O)N[C@@H](CC(C)C)C(=O)N[C@@H](CO)C(=O)N[C@@H](CC(C)C)C(=O)N[C@@H](CC(=O)O)C(=O)N[C@@H](C(=O)N1CCC[C@H]1C(=O)N[C@H](C(=O)N[C@@H](CCCCN)C(=O)N[C@@H](CC(C)C)C(=O)N[C@@H](CCCCNC(=O)CC[C@H](NC(=O)CCCCCCCCCCCCCCCCC(=O)O)C(=O)O)C(=O)N[C@@H](CCCCN)C(=O)N[C@H](C(=O)N[C@@H](CC(C)C)C(=O)N[C@@H](CC(C)C)C(=O)N[C@@H](CCC(=O)O)C(=O)N[C@@H](CCC(N)=O)C(=O)N[C@@H](CCC(=O)O)C(=O)N[C@@H](CCCCN)C(=O)N[C@@H](CCC(N)=O)C(=O)N[C@@H](CCCCN)C(=O)NC(C)(C)C(=O)N[C@@H](CCC(N)=O)C(=O)N[C@@H](CCCNC(=N)N)C(=O)N[C@@H](CCC(=O)O)C(=O)N[C@@H](CCC(N)=O)C(=O)N[C@@H](C)C(=O)N[C@@H](CCC(=O)O)C(=O)N[C@H](C(=O)N[C@@H](CC(N)=O)C(=O)NC(C)(C)C(=O)N[C@@H](CCC(N)=O)C(=O)N[C@H](C(=O)N[C@@H](CC(C)C)C(=O)N[C@@H](C)C(=O)N[C@@H](CCC(N)=O)C(=O)N[C@H](C(N)=O)C(C)C)[C@@H](C)CC)[C@@H](C)O)[C@@H](C)CC)[C@@H](C)CC)C(C)C)C(C)C` [Cmpd 145] (H-[NMeI]VLSLD[dV]PIKLK([γGlu-C18 diacid])KILLEQEKQK[Aib]QREQAETN[Aib]QILAQV-NH2), for which the EC50 was more than 100 µM. As for `CC[C@H](C)[C@H](N)C(=O)N[C@H](C(=O)N[C@@H](CC(C)C)C(=O)N[C@@H](CO)C(=O)N[C@@H](CC(C)C)C(=O)N[C@@H](CC(=O)O)C(=O)N[C@H](C(=O)N1CCC[C@H]1C(=O)N[C@H](C(=O)N[C@@H](CCCCN)C(=O)N[C@@H](CC(C)C)C(=O)N[C@@H](CCCCNC(=O)COCCOCCNC(=O)COCCOCCNC(=O)CC[C@H](NC(=O)CCCCCCCCCCCCCCCCC(=O)O)C(=O)O)C(=O)N[C@@H](CCCCN)C(=O)N[C@H](C(=O)N[C@@H](CC(C)C)C(=O)N[C@@H](CC(C)C)C(=O)N[C@@H](CCC(=O)O)C(=O)N[C@@H](CCC(N)=O)C(=O)N[C@@H](CCC(=O)O)C(=O)N[C@@H](CCCCN)C(=O)N[C@@H](CCC(N)=O)C(=O)N[C@@H](CCCCN)C(=O)N[C@@H](CCCCN)C(=O)N[C@@H](CCC(N)=O)C(=O)N[C@@H](CCCNC(=N)N)C(=O)N[C@@H](CCC(=O)O)C(=O)N[C@@H](CCC(N)=O)C(=O)N[C@@H](C)C(=O)N[C@@H](CCC(=O)O)C(=O)N[C@H](C(=O)N[C@@H](CC(N)=O)C(=O)N[C@@H](CCCCN)C(=O)N[C@@H](CCC(N)=O)C(=O)N[C@H](C(=O)N[C@@H](CC(C)C)C(=O)N[C@@H](C)C(=O)N[C@@H](CCC(N)=O)C(=O)N[C@H](C(N)=O)C(C)C)[C@@H](C)CC)[C@@H](C)O)[C@@H](C)CC)[C@@H](C)CC)C(C)C)C(C)C` [149 (comp)] (H-IVLSLDVPIKLK([AEEA-AEEA-γGlu-C18 diacid])KILLEQEKQKKQREQAETNKQILAQV-NH2), the response was half-maximal at 50.4 µM (EC50).

Turning to `CC[C@H](C)[C@H](NC(C)=O)C(=O)N[C@H](C(=O)N[C@@H](CC(C)C)C(=O)N[C@@H](CO)C(=O)N[C@@H](CC(C)C)C(=O)N[C@@H](CC(=O)O)C(=O)N[C@@H](C(=O)N1CCC[C@H]1C(=O)N[C@H](C(=O)N[C@@H](CCCCN)C(=O)N[C@@H](CC(C)C)C(=O)N[C@@H](CCCCNC(=O)CC[C@H](NC(=O)CCCCCCCCCCCCCCC(=O)O)C(=O)O)C(=O)N[C@@H](CCCCN)C(=O)N[C@H](C(=O)N[C@@H](CC(C)C)C(=O)N[C@@H](CC(C)C)C(=O)N[C@@H](CCC(=O)O)C(=O)N[C@@H](CCC(N)=O)C(=O)N[C@@H](CCC(=O)O)C(=O)N[C@@H](C)C(=O)N[C@@H](CCC(N)=O)C(=O)N[C@@H](CCCCN)C(=O)N[C@@H](CCCCN)C(=O)N[C@@H](CCC(N)=O)C(=O)N[C@@H](CCCNC(=N)N)C(=O)N[C@@H](CCC(=O)O)C(=O)N[C@@H](CCC(N)=O)C(=O)N[C@@H](C)C(=O)N[C@@H](CCC(=O)O)C(=O)N[C@H](C(=O)N[C@@H](CC(N)=O)C(=O)NC(C)(C)C(=O)N[C@@H](CCC(N)=O)C(=O)N[C@H](C(=O)N[C@@H](CC(C)C)C(=O)N[C@@H](C)C(=O)N[C@@H](CCC(N)=O)C(=O)N[C@H](C(N)=O)C(C)C)[C@@H](C)CC)[C@@H](C)O)[C@@H](C)CC)[C@@H](C)CC)C(C)C)C(C)C` [Cmpd 165] (Ac-IVLSLD[dV]PIKLK([γGlu-C16 diacid])KILLEQEAQKKQREQAETN[Aib]QILAQV-NH2), the EC50 was more than 100 µM. With `NC(N)=NCCC[C@@H](N)C(=O)N[C@@H](CCCN=C(N)N)C(=O)N1CCC[C@H]1C(=O)N1C[C@H](O)C[C@H]1C(=O)NCC(=O)N[C@@H](Cc1cccs1)C(=O)N[C@@H](CO)C(=O)N1Cc2ccccc2C[C@@H]1C(=O)N1[C@H](C(=O)N[C@@H](CCCN=C(N)N)C(=O)O)C[C@@H]2CCCC[C@@H]21` [Icatibant, reference compound] the figure was 16.4 µM.
